# Data from patent publication US20230276792A1, “SELECTIVE HERBICIDES BASED ON SUBSTITUTED ISOXAZOLIN CARBOXAMIDES AND CLOQUINTOCET-MEXYL” (Bayer Aktiengesellschaft, priority 2020, published 2023).
# Assays:
# Assay type in all cases: in vivo
# [1] = system: spring barley, HORVS Montoya; experiment: Safener seed treatment, pre-emergence herbicide application, crop damage; settings: 21 (Final) DAT; HER dose 15 g a.i./ha; cloquintocet-mexyl 0.25 g a.i./kg seed
# Method: (§1) For the safener seed treatment, sufficient seeds of the respective crops (spring wheat, TRZAS; spring barley, HORVS; maize, ZEAMA) were weighed into screw top glass bottles approximately twice the volume of the seeds.
# (§2) The specified safeners, formulated as wettable powder (WP) were weighed out so that the specified rates (g a.i./kg seed) would be obtained, dissolved in water (1 ml water per 10 g of seeds), and added to the seeds to produce a slurry.
# (§3) The bottles were capped and then placed in an overhead shaker (set at medium speed for ca. 60 minutes) so that the seeds were evenly coated with the slurry. The bottles were uncapped and the seeds were either placed on paper and dried for an interval of 3-4 hours prior to sowing, or directly sown. Seeds were placed in sandy loam soil in pots of a diameter of 7-8 cm, and covered with soil.
# Pre-emergence application of the specified herbicides was done subsequently, on two sets of plants: • a) seed treatment with safener, as described above • b) no safener treatment […]
# After application, the test plants were kept in the greenhouse under good growth conditions. At intervals up to 4 weeks after application (=28 days after treatment; DAT), % crop damage observed on the treated plants was scored visually in comparison to control plants that had not received any safener or herbicide treatment. […]
# [2] = system: spring wheat, TRZAS Triso; experiment: as above; settings: cloquintocet-mexyl 0.25 g a.i./kg seed
# Method: as §1, §2, §3
# Pre-emergence application of the specified herbicides was done subsequently, on two sets of plants: • a) seed treatment with safener, as described above • b) no safener treatment
# The herbicides were formulated as WP and was sprayed onto the soil surface as an aqueous suspension at an equivalent water application rate of 300 l/ha.
# After application, the test plants were kept in the greenhouse under good growth conditions. At intervals up to 4 weeks after application (=28 days after treatment; DAT), % crop damage observed on the treated plants was scored visually in comparison to control plants that had not received any safener or herbicide treatment.
# Values in the table below are mean values of at least 2 replicates.
# (§4) Reduction [Difference]=herbicide damage without safener−herbicide damage with safener
# (§5) Reduction [%]=(Reduction [Difference]*100)/herbicide damage without safener
# a) Plant Species, Variety: TRZAS Triso, Safener (SAF): Cloquintocet-Mexyl
# [3] = system: spring wheat, TRZAS Triso; experiment: Safener seed treatment, post-emergence herbicide application, crop damage; settings: 21 DAT; for HER effect + SAF [%]: cloquintocet-mexyl 0, 5 g a.i./kg seed; for HER effect [%]: without safener
# Source text: For safener seed treatment trials, sufficient seed amounts of the respective crops (spring wheat (TRZAS); spring barley (HORVS)) were weighed into screw cap glass bottles with a minimum volume trice of the seeds.
# As a first step, specified safeners formulated as wettable powder (WP) or wettable granules (WG) were weighed out for the required dosages (g a.i./kg seed), corresponding to the seed amounts. The safener amounts were mixed with a coloured slurry blind formulation type, pre-diluted with milk at 3.5% fat rate (25 mgs slurry formulation plus 2 ml milk per 10 grams of seed). A tube roller was used for coating. The solutions were gradually pipetted each on the rotating seeds followed by coating for min. 3 hours until all liquid had been soaked up by the seeds. Thereafter, the coated seeds were put flat on open trays for drying over night at room temperature.
# Treated seeds were then placed into pots (7 cm diameter) on the surface of sandy loam, pressed down, flat covered with additional soil and finally covered with sandy soil, also pressed down, watered, and kept under good growth conditions in a greenhouse, until the plants had reached 2-leaf-stage (BBCH 12).
# At that stage, post-emergence application of the specified herbicides was done on: • a) pot sets containing plants with safener-coated seeds as described above, • b) as a reference, pot sets of plants without seed treatment.
# The herbicides were formulated as wettable powder (WP). Equivalent to the spray area, compound amounts were weighed out and diluted related to the water application rate (300 l/ha) to an aqueous suspension plus additive (1 l/ha MERO). Dosage related equivalents were conventionally sprayed on trays with the potted plants.
# After application, the test plants were kept under good growth conditions in a greenhouse. Assessment timings were 10 and 21 days after treatment (DAT) with the herbicide, by visual scoring of the crop damage in % (comparison of untreated with treated plants, either sprayed only with herbicide or with herbicide on plants with treated seeds).
# as §4, §5
# b) Plant Species, Variety: TRZAS Triso, Safener (SAF): Cloquintocet-Mexyl
# [4] = 11 (Interim) DAT, HER dose 15 g a.i./ha
# [5] = 21 (Final) DAT, HER dose 15 g a.i./ha
structure (smiles),measurement,setting,value
C=CC1(C(=O)NC2COC(C(=O)OC)C2)CC(c2cc(F)cc(F)c2)=NO1 (mixture of isomers) [Example 1.68],Reduction [Difference],[1],80
same,Reduction [Difference],"[2]; 11 (Interim) DAT, HER dose 5 g a.i./ha",45
same,Reduction [%],[2]; [4],88%
same,Reduction [Difference],[2]; [4],70
same,Reduction [Difference],"[2]; 21 (Final) DAT, HER dose 5 g a.i./ha",45
same,Reduction [%],[2]; [5],94%
same,Reduction [Difference],[2]; [5],80
same,HER effect + SAF [%],[3]; HER dose 1 g a.i./ha,20%
same,HER effect [%],[3]; HER dose 1 g a.i./ha,80%
same,HER effect + SAF [%],[3]; HER dose 4 g a.i./ha,30%
same,HER effect [%],[3]; HER dose 4 g a.i./ha,85%
